{"source": "patent US8211654B2", "about": "“High-throughput assay for sugar-mediated drug transport” (Wisconsin Alumni Research Foundation, priority 2008, dated 2012)", "key": {"[1]": {"biological_target": "T1, GLUT7 (Homo sapiens, UniProt Q6PXP3)", "T1 construct": "host or cells: Xenopus oocytes mainly; also COS-7, CHO, yeast variants (not tied to single values)", "T1 sequence (Q6PXP3 1-512)": "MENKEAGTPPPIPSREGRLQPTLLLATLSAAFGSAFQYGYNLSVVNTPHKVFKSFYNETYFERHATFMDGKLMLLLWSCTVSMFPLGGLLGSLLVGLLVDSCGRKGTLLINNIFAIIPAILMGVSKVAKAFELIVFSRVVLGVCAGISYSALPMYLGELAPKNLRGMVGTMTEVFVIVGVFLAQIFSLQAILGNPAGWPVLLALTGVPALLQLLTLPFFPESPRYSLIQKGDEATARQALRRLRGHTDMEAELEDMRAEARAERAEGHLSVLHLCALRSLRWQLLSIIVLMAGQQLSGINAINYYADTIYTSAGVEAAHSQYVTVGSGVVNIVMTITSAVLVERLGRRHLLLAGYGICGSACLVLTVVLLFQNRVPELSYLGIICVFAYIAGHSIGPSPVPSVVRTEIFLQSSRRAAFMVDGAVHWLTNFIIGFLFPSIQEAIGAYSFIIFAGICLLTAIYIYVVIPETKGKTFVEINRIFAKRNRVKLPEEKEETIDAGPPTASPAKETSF", "settings": "literature; cited from earlier work"}, "[2]": {"biological_target": "T2, GLUT3 (Homo sapiens, UniProt P11169)", "T2 construct": "host or cells: Xenopus oocytes mainly; also COS-7, CHO, yeast variants (not tied to single values)", "T2 sequence (P11169 1-496)": "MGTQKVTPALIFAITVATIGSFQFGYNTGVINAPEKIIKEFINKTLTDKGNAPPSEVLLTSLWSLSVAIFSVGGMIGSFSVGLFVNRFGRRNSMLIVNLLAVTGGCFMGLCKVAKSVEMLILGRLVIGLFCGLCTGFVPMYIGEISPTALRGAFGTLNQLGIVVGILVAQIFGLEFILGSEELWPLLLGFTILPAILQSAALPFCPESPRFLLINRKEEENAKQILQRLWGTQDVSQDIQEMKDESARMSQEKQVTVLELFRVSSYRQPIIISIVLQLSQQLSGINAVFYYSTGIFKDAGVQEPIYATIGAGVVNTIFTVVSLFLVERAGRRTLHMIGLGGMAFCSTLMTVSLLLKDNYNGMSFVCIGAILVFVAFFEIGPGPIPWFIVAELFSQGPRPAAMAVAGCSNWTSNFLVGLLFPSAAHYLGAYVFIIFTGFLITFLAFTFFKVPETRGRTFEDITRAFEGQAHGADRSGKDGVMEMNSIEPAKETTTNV", "settings": "literature; cited from earlier work"}, "[3]": {"biological_target": "T3, GLUT9 (Homo sapiens, UniProt Q9NRM0)", "T3 construct": "host or cells: Xenopus oocytes mainly; also COS-7, CHO, yeast variants (not tied to single values)", "T3 sequence (Q9NRM0 1-540)": "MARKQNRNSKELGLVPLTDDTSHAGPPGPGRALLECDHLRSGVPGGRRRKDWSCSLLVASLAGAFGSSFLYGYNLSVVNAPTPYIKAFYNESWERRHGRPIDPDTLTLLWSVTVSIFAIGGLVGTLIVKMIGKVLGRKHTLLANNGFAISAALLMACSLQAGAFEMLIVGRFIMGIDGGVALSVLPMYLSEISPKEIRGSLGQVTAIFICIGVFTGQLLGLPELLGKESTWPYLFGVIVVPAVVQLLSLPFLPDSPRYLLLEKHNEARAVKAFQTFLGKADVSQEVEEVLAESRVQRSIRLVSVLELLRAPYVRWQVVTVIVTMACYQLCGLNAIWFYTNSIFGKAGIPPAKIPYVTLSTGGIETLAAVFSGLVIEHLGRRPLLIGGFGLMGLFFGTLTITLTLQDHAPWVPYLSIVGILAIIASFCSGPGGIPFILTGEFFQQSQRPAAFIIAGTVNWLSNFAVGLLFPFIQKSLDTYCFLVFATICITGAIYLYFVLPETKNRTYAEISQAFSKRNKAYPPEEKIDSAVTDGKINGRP", "settings": "literature; cited from earlier work"}, "[4]": {"biological_target": "T4, GLUT11 (Homo sapiens, UniProt Q9BYW1)", "T4 construct": "host or cells: Xenopus oocytes mainly; also COS-7, CHO, yeast variants (not tied to single values)", "T4 sequence (Q9BYW1 1-496)": "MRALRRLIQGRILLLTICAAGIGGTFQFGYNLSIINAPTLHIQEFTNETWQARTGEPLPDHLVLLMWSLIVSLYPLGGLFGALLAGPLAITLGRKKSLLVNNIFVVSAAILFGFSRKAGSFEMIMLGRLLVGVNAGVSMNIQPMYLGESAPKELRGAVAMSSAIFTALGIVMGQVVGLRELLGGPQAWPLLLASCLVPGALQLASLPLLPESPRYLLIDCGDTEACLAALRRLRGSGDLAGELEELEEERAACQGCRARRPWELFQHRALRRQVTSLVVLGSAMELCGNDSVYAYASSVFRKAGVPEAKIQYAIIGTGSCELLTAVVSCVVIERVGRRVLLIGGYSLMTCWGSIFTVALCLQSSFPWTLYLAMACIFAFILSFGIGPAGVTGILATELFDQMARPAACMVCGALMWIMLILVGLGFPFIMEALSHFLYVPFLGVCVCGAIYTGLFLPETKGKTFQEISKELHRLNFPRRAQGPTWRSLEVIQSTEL", "settings": "literature; cited from earlier work"}, "[5]": {"biological_target": "T5, GLUT5 (Homo sapiens, UniProt P22732)", "T5 construct": "host or cells: Xenopus oocytes mainly; also COS-7, CHO, yeast variants (not tied to single values)", "T5 sequence (P22732 1-501)": "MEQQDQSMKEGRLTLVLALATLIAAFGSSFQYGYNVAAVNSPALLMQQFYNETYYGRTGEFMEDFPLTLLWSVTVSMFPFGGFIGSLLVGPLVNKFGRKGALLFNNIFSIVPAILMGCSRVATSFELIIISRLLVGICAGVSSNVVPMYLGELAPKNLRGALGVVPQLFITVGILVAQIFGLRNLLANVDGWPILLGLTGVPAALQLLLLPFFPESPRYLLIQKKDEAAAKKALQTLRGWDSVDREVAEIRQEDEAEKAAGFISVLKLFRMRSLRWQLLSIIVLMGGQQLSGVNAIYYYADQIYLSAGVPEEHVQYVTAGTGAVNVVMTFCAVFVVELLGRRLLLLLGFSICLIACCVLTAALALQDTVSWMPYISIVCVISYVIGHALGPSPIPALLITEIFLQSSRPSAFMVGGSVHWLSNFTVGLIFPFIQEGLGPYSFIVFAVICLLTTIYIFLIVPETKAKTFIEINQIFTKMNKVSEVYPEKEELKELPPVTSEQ", "settings": "literature; cited from earlier work"}, "[6]": {"biological_target": "T6, GLUT2 (Homo sapiens, UniProt P11168)", "T6 construct": "host or cells: Xenopus oocytes mainly; also COS-7, CHO, yeast variants (not tied to single values)", "T6 sequence (P11168 1-524)": "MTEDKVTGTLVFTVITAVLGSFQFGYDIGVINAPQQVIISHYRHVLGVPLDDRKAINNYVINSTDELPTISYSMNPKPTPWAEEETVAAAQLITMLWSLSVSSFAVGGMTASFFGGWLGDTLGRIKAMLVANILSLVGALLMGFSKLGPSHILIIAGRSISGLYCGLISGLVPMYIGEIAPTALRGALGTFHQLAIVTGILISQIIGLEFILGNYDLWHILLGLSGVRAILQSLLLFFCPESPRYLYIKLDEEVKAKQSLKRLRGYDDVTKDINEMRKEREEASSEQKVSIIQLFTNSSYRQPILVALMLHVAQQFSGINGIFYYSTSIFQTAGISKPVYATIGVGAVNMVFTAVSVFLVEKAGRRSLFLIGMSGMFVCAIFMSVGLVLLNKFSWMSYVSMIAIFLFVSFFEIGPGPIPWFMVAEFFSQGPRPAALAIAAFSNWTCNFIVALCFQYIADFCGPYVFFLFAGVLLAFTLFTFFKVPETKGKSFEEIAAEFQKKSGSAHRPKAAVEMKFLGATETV", "settings": "literature; cited from earlier work"}, "[7]": {"settings": "compared with the parent ifosfamide; cited from earlier work"}, "[8]": {"tested_on": "MCF10A (immortalized breast), MCF7 (breast cancer), A549 (non-small cell lung cancer), Du145 (prostrate cancer), RWPE (immortalized prostrate)", "experiment": "Sugar transporter assay: uptake of sugar-fluorophore conjugates by intracellular fluorescence, normalized to cell number", "type": "cell-based", "settings": "1 hour incubation; dose range 250-0 μM; five cell lines; compared with D-glucose conjugate", "procedure": "FIG. 5. Representative sugar transporter assays. […] For each cell line, the dose range was 250 μM, 125 μM, 62.5 μM, 31.3 μM, 15.6 μM, 7.8 μM, 3.9 μM and 0 μM. The average error (40 compounds, 5 cell lines) was 8.3%.\nFor the sugar transporter assay of the present invention, cells were plated at a density of 30,000 cells/ml (100 μL/well) in a 96-well clear bottom microtiter plates. Cells were allowed to attach overnight, and then incubated in glucose-free medium for an additional 24 hours. Compounds were added (from 96-well compound stock plates at a 1:100 dilution) using a Biomek FX liquid handler equipped with a 96 channel head. The plates were incubated for 1 hour and then the compound solution was removed by gentle aspiration. The cells were subsequently washed (1×100 μL) with phosphate buffered saline to remove residual fluorescent dye.\nSugar-conjugate uptake was assessed via intracellular fluorescence (FIG. 4b-4f) as determined using a Safire2™ multi-mode microplate reader (δex=485 nm, δem=535 nm) and normalized to cell number by a subsequent CellTiter-Glo® luminescent cell viability assay. […] The CellTiter-Glo® luminescent cell viability assay was analyzed on a Safire2™ multi-mode microplate reader for luminescence at 1 second per well. As an initial preliminary study, the transport assay with a representative set of probes was also analyzed using microscopy (FIG. 6)."}}}
{"molecule": "O=CC[C@@H](O)[C@H](O)[C@H](O)CO", "note": "[2-deoxyglucose]", "values": [{"measurement": "transport by GLUT7", "setting": "[1]", "result": "does not transport"}, {"measurement": "affinity for GLUT3", "setting": "[2]", "result": "approximately 1.5 mM"}, {"measurement": "transport by GLUT9", "setting": "[3]", "result": "transport"}]}
{"molecule": "O=C(CO)[C@@H](O)[C@H](O)[C@H](O)CO", "note": "[fructose]", "values": [{"measurement": "transport by GLUT11", "setting": "[4]", "result": "provides for transport"}, {"measurement": "affinity for GLUT5", "setting": "[5]", "result": "approximately 1 mM"}]}
{"molecule": "O=C[C@H](O)[C@@H](O)[C@@H](O)[C@H](O)CO", "note": "[galactose]", "values": [{"measurement": "transport by GLUT11", "setting": "[4]", "result": "not galactose"}, {"measurement": "transport by GLUT7", "setting": "[1]", "result": "does not transport"}]}
{"molecule": "N[C@H]1C(O)O[C@H](CO)[C@@H](O)[C@@H]1O", "note": "(stereo partly drawn) [glucosamine]", "values": [{"measurement": "affinity for GLUT2", "setting": "[6]", "result": "approximately 1 mM"}]}
{"molecule": "O=P(NCCCl)(NCCCl)O[C@@H]1O[C@H](CO)[C@@H](O)[C@H](O)[C@H]1O", "note": "[glufosfamide]", "values": [{"measurement": "antitumor activity", "setting": "[7]", "result": "higher antitumor activity"}, {"measurement": "myelotoxicity", "setting": "[7]", "result": "lower myelotoxicity"}]}
{"molecule": "O=C[C@H](O)[C@@H](O)[C@H](O)CO", "note": "[xylose]", "values": [{"measurement": "transport by GLUT7", "setting": "[1]", "result": "does not transport"}]}
{"molecule": "aminofluoroscein [parent 11]", "values": [{"measurement": "sugar-conjugate uptake (intracellular fluorescence normalized to cell number)", "setting": "[8]", "result": "No uptake"}]}
